As a reminder, the IC50 is the point on the concentration scale where inhibition reaches its midpoint.

The subject of assay [1] is MCF‐7 cells. Description: AO staining (acidic vacuoles, autophagy), MCF‐7. The settings on record: MCF‐7, 20 μM, 72 h. The assay is classed as cell-based, human. As for the experimental part:
Flow cytometry. For gaining better insights into the mechanisms of action of the ruthenium complexes, MCF‐7 and LN229 cells incubated with an IC50 dose of 3 or 4, were analyzed via flow cytometry. Several staining protocols were carried out in parallel, in independent experiments: i) AnnV/PI for the detection of apoptotic cell death, ii) AO for the detection of acidic vacuoles, iii) ApoStat for checking caspase activation, iv) CFSE for detecting interference with cellular proliferation, and v) DAPI for the detection of morphological signs of apoptosis. Untreated cells or cells treated only with BSA (control) were also measured, as reference for BSA‐free and BSA‐containing drug formulations, respectively. […] Channels FL1 (green emission), FL2 (orange emission) and/or FL3 (dark red emission) were used for fluorescence detection, according to the specific staining agent. Sideward Scatter (SSC) for MCF‐7 cells treated with 4 or BSA−4 was also analyzed, with respect to the control, for detection of shifts of cell granularity. […]
FCS, 2 mM L‐glutamine, 0.01% sodium pyruvate and antibiotics, at 37 °C in a humidified atmosphere with 5% CO2. […] Cells were counted and seeded in 96‐well plates and incubated overnight, as described above. […]
Staining Protocols for Flow Cytometric Analysis. […] Finally, cells were washed in PBS, resuspended in PBS (or AnnV‐binding buffer for AnnV/PI), and analysed. […]

Assay [2] has as its system Human fibroblast cell line MRC‐5. Description: MTT cell viability assay, MRC‐5. The settings on record: 72 h. The assay is classed as cell-based. The source says:
(§1) Thus, care must be taken when comparing their biological activities with those of our previous studies, even with the same cell line, because the covalent vs. non‐covalent combination of drugs might imply different mechanisms of action in the cell.44 Here, we studied the in vitro activity of ruthenacarborane 3, i. e. free acid, and its 8‐hydroxyquinolyl (4) and 4‐{(7‐chloroquinolin‐4‐yl)oxy}butanol‐1‐yl (5) esters, against a panel of cancer cell lines (B16 mouse melanoma, A375 human skin melanoma, MCF‐7 human breast adenocarcinoma, LN229 human glioblastoma, U251 human glioma). Human fibroblast cell line MRC‐5, murine microglial cell line BV‐2 as well as peritoneal exudate cells (Mph), were chosen as models for non‐malignant cells. […] On the other side, we wanted to assess the reproducibility of the viability data, under either controlled (with BSA) or uncontrolled (without BSA) conditions, in two sets of independent assays. […] Cells were exposed to 3–5 for 72 h, after which cell viability was determined via 3‐(4,5‐dimethylthiazol‐2‐yl)‐2,5‐diphenyltetrazolium bromide (MTT) and crystal violet (CV) assays, in parallel (Table 2). Cisplatin was also tested as reference.
Preparation of drug solutions. […] Stock solution of cisplatin was prepared in DMF (10 mM) immediately before use. A stock solution of BSA in PBS was prepared at 1.28 mM concentration, and stored at 4 °C in the dark. […] Alternatively, 3 or 4 (DMSO stock solution) were added to the BSA solution in PBS, always with a 10 : 1 molar ratio of BSA to ruthenacarborane. […]
Colorimetric assays for cellular viability. […] The absorbance was measured with an automated microplate reader at λmax 540 nm, with the reference λmax 670 nm. Untreated cells or cells treated only with BSA (control) were also measured, as reference for BSA‐free and BSA‐containing drug formulations, respectively. […] Cell viability is expressed as percentage (%) relative to control (untreated cultures).58 Experiments were run in three independent replicates. […]
(Formazan colour is commonly taken as a measure of viable cells.)

Assay [3] concerns U251 human glioma. Description: Crystal violet (CV) cell viability assay, U251. The settings on record: CV assay, 72 h; read-out: IC50 U251. The assay is classed as cell-based.
Description: as §1
(§2) Preparation of drug solutions. […] Stock solution of cisplatin was prepared in DMF (10 mM) immediately before use. A stock solution of BSA in PBS was prepared at 1.28 mM concentration, and stored at 4 °C in the dark. […] Alternatively, 3 or 4 (DMSO stock solution) were added to the BSA solution in PBS, always with a 10 : 1 molar ratio of BSA to ruthenacarborane. The BSA−ruthenacarborane solutions were incubated 0.5–1 h at room temperature, then diluted with cell culture medium to the desired final concentrations. Final concentrations of 3 and 4 were the same as for the BSA‐free formulation. Final DMSO was 0.02–0.5 vol %.
Colorimetric assays for cellular viability. […] For counting the number of attached (viable) cells, cells were fixed with 4 % (w/v) paraformaldehyde for 10 min at room temperature, and subsequently stained for 15 min with […] crystal violet (CV) solution. Cells were then washed with tap water, dried in air, and the CV dye was dissolved in 33 % (w/v) acetic acid solution. For the detection of mitochondrial respiration, cells were cultivated in MTT staining solution (0.5 mg mL^−1) for approximately 1 h. The dye was then discarded, and the formed formazan (purple) was dissolved in DMSO. The absorbance was measured with an automated microplate reader at λmax 540 nm, with the reference λmax 670 nm. Untreated cells or cells treated only with BSA (control) were also measured, as reference for BSA‐free and BSA‐containing drug formulations, respectively. For determination of the role of autophagy specific inhibitors, CQ or 3‐MA, were applied at a concentration of 20 μM and 0.5 mM, respectively, and the cells were stained with CV dye. Cell viability is expressed as percentage (%) relative to control (untreated cultures).58 Experiments were run in three independent replicates. […] Non‐linear regression analyses of the obtained results was done using GraphPad Prism software to calculate IC50 values.
mouse microglial cell line BV‐2 was a kind gift from Dr. Irena Lavrnja, Institute for Biological Research
“Siniša Stanković” (University of Belgrade).

Assay [4] has as its system U251 human glioma. Description: MTT cell viability assay, U251. The assay is classed as cell-based. The settings on record: 72 h.
Description: as §1, §2
Colorimetric assays for cellular viability. […] For counting the number of attached (viable) cells, cells were fixed with 4 % (w/v) paraformaldehyde for 10 min at room temperature, and subsequently stained for 15 min with […] crystal violet (CV) solution. Cells were then washed with tap water, dried in air, and the CV dye was dissolved in 33 % (w/v) acetic acid solution. For the detection of mitochondrial respiration, cells were cultivated in MTT staining solution (0.5 mg mL^−1) for approximately 1 h. The dye was then discarded, and the formed formazan (purple) was dissolved in DMSO. The absorbance was measured with an automated microplate reader at λmax 540 nm, with the reference λmax 670 nm. Untreated cells or cells treated only with BSA (control) were also measured, as reference for BSA‐free and BSA‐containing drug formulations, respectively. […] Cell viability is expressed as percentage (%) relative to control (untreated cultures).58 Experiments were run in three independent replicates. […]

“closo‐ [Compound 3, closo‐ [3‐(η^6‐p‐Cymene)‐1‐(CH2COOH)‐3,1,2‐RuC2B9H10]]”: the “autophagy (AO staining)” value in assay [1] is “strongly amplified autophagic processes”. Further, the IC50 was 44.2 ± 1.6 µM in assay [2], above 100 µM in assay [3] and above 100 µM in assay [4].
Take “closo ‐[3‐(η^6‐p‐Cymene)‐1‐(quinolin‐8‐yl‐acetate)‐3,1,2‐RuC2B9H10] [Compound 4]”: in assay [1], the “autophagy (AO staining)” value is “suppressed autophagy”. For the same substance, the figures for the IC50 in assay [2], in assay [3] and in assay [4] were 3.9 ± 0.1 µM, 45.1 ± 0.8 µM and 46.2 ± 1.9 µM, respectively.

For the origin of these results see publication PMC6973020, “Quinoline‐Conjugated Ruthenacarboranes: Toward Hybrid Drugs with a Dual Mode of Action” (Chemmedchem, 2019).
